# According to PubChem BioAssay AID1963980 (Molecular Pharmacology Branch, DTP, NCI, 2024):
# System: 475296-252-R-J1-PDC spheroid viability
# Assay: Anticancer human tumor 475296-252-R-J1-PDC patient-derived rectal carcinoma cell line growth inhibition [PI3K]
# Conditions: curve of first compound; second compound 10 µM; spheroids with HUVEC and MSC
# Summary of the method: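 Tumor cells grown as multi-cell spheroids with HUVEC endothelial cells and MSC fibroblast-like stroma were treated with targeted agents combined with inavolisib, alpelisib, duvelisib or copanlisib. Doses fell in half-log steps from near clinical Cmax, else from 10 microM. Viability was measured.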
# 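Also: spheroids exposed to agents for seven days before readout.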
row,Structure (SMILES),IC50
1,C=CC(=O)N1CCN(c2nc(=O)n(-c3c(C)ccnc3C(C)C)c3nc(-c4c(O)cccc4F)c(F)cc23)C(C)C1 (stereo unspecified) + Cc1nc(NC(=O)N2CCCC2C(N)=O)sc1-c1ccnc(C(C)(C)C(F)(F)F)c1,> 10 µM
2,CC(Cn1ccc(-c2ccc(C#N)c(Cl)c2)n1)NC(=O)c1cc(C(C)O)[nH]n1 (stereo unspecified) + Cc1nc(NC(=O)N2CCCC2C(N)=O)sc1-c1ccnc(C(C)(C)C(F)(F)F)c1,> 10 µM

# Now from value to compound:
row,IC50,Structure (SMILES)
1,4.16 µM,Cn1ncc(Cl)c1-c1cc(C(=O)NC(CN)Cc2cccc(F)c2)sc1Cl (stereo unspecified) + Cc1nc(NC(=O)N2CCCC2C(N)=O)sc1-c1ccnc(C(C)(C)C(F)(F)F)c1
2,1.44 µM,Cn1nccc1Nc1nccc(-c2ccn(C(CO)c3ccc(Cl)c(F)c3)c(=O)c2)n1 (stereo unspecified) + Cc1nc(NC(=O)N2CCCC2C(N)=O)sc1-c1ccnc(C(C)(C)C(F)(F)F)c1

# Same assay, conditions: second compound 0.0316 µM; first compound 0.0316 µM; stronger effect = lower value; spheroids with HUVEC and MSC
row,Structure (SMILES),"viability, T/C"
1,C#Cc1c(F)ccc2cc(O)cc(-c3ncc4c(N5CC6CCC(C5)N6)nc(OCC56CCCN5CC(F)C6)nc4c3F)c12 (stereo unspecified) + Cc1nc(NC(=O)N2CCCC2C(N)=O)sc1-c1ccnc(C(C)(C)C(F)(F)F)c1,88.4%
2,C=CC(=O)N1CCN(c2nc(=O)n(-c3c(C)ccnc3C(C)C)c3nc(-c4c(O)cccc4F)c(F)cc23)C(C)C1 (stereo unspecified) + Cc1nc(NC(=O)N2CCCC2C(N)=O)sc1-c1ccnc(C(C)(C)C(F)(F)F)c1,90%
3,CC(Cn1ccc(-c2ccc(C#N)c(Cl)c2)n1)NC(=O)c1cc(C(C)O)[nH]n1 (stereo unspecified) + Cc1nc(NC(=O)N2CCCC2C(N)=O)sc1-c1ccnc(C(C)(C)C(F)(F)F)c1,105%
4,Cn1ncc(Cl)c1-c1cc(C(=O)NC(CN)Cc2cccc(F)c2)sc1Cl (stereo unspecified) + Cc1nc(NC(=O)N2CCCC2C(N)=O)sc1-c1ccnc(C(C)(C)C(F)(F)F)c1,91.1%
5,Cn1nccc1Nc1nccc(-c2ccn(C(CO)c3ccc(Cl)c(F)c3)c(=O)c2)n1 (stereo unspecified) + Cc1nc(NC(=O)N2CCCC2C(N)=O)sc1-c1ccnc(C(C)(C)C(F)(F)F)c1,108%

# Same assay, conditions: second compound 0.0316 µM; first compound 0.1 µM; stronger effect = lower value; spheroids with HUVEC and MSC
row,Structure (SMILES),"viability, T/C"
1,C#Cc1c(F)ccc2cc(O)cc(-c3ncc4c(N5CC6CCC(C5)N6)nc(OCC56CCCN5CC(F)C6)nc4c3F)c12 (stereo unspecified) + Cc1nc(NC(=O)N2CCCC2C(N)=O)sc1-c1ccnc(C(C)(C)C(F)(F)F)c1,84.1%
2,C=CC(=O)N1CCN(c2nc(=O)n(-c3c(C)ccnc3C(C)C)c3nc(-c4c(O)cccc4F)c(F)cc23)C(C)C1 (stereo unspecified) + Cc1nc(NC(=O)N2CCCC2C(N)=O)sc1-c1ccnc(C(C)(C)C(F)(F)F)c1,79.2%
3,CC(Cn1ccc(-c2ccc(C#N)c(Cl)c2)n1)NC(=O)c1cc(C(C)O)[nH]n1 (stereo unspecified) + Cc1nc(NC(=O)N2CCCC2C(N)=O)sc1-c1ccnc(C(C)(C)C(F)(F)F)c1,108%
4,Cn1ncc(Cl)c1-c1cc(C(=O)NC(CN)Cc2cccc(F)c2)sc1Cl (stereo unspecified) + Cc1nc(NC(=O)N2CCCC2C(N)=O)sc1-c1ccnc(C(C)(C)C(F)(F)F)c1,74.3%
5,Cn1nccc1Nc1nccc(-c2ccn(C(CO)c3ccc(Cl)c(F)c3)c(=O)c2)n1 (stereo unspecified) + Cc1nc(NC(=O)N2CCCC2C(N)=O)sc1-c1ccnc(C(C)(C)C(F)(F)F)c1,94.2%

# Same assay, conditions: second compound 0.0316 µM; first compound 0.316 µM; stronger effect = lower value; spheroids with HUVEC and MSC
row,Structure (SMILES),"viability, T/C"
1,C#Cc1c(F)ccc2cc(O)cc(-c3ncc4c(N5CC6CCC(C5)N6)nc(OCC56CCCN5CC(F)C6)nc4c3F)c12 (stereo unspecified) + Cc1nc(NC(=O)N2CCCC2C(N)=O)sc1-c1ccnc(C(C)(C)C(F)(F)F)c1,88.5%
2,C=CC(=O)N1CCN(c2nc(=O)n(-c3c(C)ccnc3C(C)C)c3nc(-c4c(O)cccc4F)c(F)cc23)C(C)C1 (stereo unspecified) + Cc1nc(NC(=O)N2CCCC2C(N)=O)sc1-c1ccnc(C(C)(C)C(F)(F)F)c1,99.9%
3,CC(Cn1ccc(-c2ccc(C#N)c(Cl)c2)n1)NC(=O)c1cc(C(C)O)[nH]n1 (stereo unspecified) + Cc1nc(NC(=O)N2CCCC2C(N)=O)sc1-c1ccnc(C(C)(C)C(F)(F)F)c1,110%
4,Cn1ncc(Cl)c1-c1cc(C(=O)NC(CN)Cc2cccc(F)c2)sc1Cl (stereo unspecified) + Cc1nc(NC(=O)N2CCCC2C(N)=O)sc1-c1ccnc(C(C)(C)C(F)(F)F)c1,75.3%
5,Cn1nccc1Nc1nccc(-c2ccn(C(CO)c3ccc(Cl)c(F)c3)c(=O)c2)n1 (stereo unspecified) + Cc1nc(NC(=O)N2CCCC2C(N)=O)sc1-c1ccnc(C(C)(C)C(F)(F)F)c1,106%

# Same assay, conditions: second compound 0.0316 µM; first compound 1 µM; stronger effect = lower value; spheroids with HUVEC and MSC
row,Structure (SMILES),"viability, T/C"
1,C#Cc1c(F)ccc2cc(O)cc(-c3ncc4c(N5CC6CCC(C5)N6)nc(OCC56CCCN5CC(F)C6)nc4c3F)c12 (stereo unspecified) + Cc1nc(NC(=O)N2CCCC2C(N)=O)sc1-c1ccnc(C(C)(C)C(F)(F)F)c1,74.2%
2,C=CC(=O)N1CCN(c2nc(=O)n(-c3c(C)ccnc3C(C)C)c3nc(-c4c(O)cccc4F)c(F)cc23)C(C)C1 (stereo unspecified) + Cc1nc(NC(=O)N2CCCC2C(N)=O)sc1-c1ccnc(C(C)(C)C(F)(F)F)c1,89.7%
3,CC(Cn1ccc(-c2ccc(C#N)c(Cl)c2)n1)NC(=O)c1cc(C(C)O)[nH]n1 (stereo unspecified) + Cc1nc(NC(=O)N2CCCC2C(N)=O)sc1-c1ccnc(C(C)(C)C(F)(F)F)c1,98.4%
4,Cn1ncc(Cl)c1-c1cc(C(=O)NC(CN)Cc2cccc(F)c2)sc1Cl (stereo unspecified) + Cc1nc(NC(=O)N2CCCC2C(N)=O)sc1-c1ccnc(C(C)(C)C(F)(F)F)c1,67.1%
5,Cn1nccc1Nc1nccc(-c2ccn(C(CO)c3ccc(Cl)c(F)c3)c(=O)c2)n1 (stereo unspecified) + Cc1nc(NC(=O)N2CCCC2C(N)=O)sc1-c1ccnc(C(C)(C)C(F)(F)F)c1,88.9%

# Same assay, conditions: second compound 0.0316 µM; first compound 3.16 µM; stronger effect = lower value; spheroids with HUVEC and MSC
row,Structure (SMILES),"viability, T/C"
1,C#Cc1c(F)ccc2cc(O)cc(-c3ncc4c(N5CC6CCC(C5)N6)nc(OCC56CCCN5CC(F)C6)nc4c3F)c12 (stereo unspecified) + Cc1nc(NC(=O)N2CCCC2C(N)=O)sc1-c1ccnc(C(C)(C)C(F)(F)F)c1,67.9%
2,C=CC(=O)N1CCN(c2nc(=O)n(-c3c(C)ccnc3C(C)C)c3nc(-c4c(O)cccc4F)c(F)cc23)C(C)C1 (stereo unspecified) + Cc1nc(NC(=O)N2CCCC2C(N)=O)sc1-c1ccnc(C(C)(C)C(F)(F)F)c1,106%
